# Reference: US7772180B2, “Hepatitis C virus inhibitors” (Bristol-Myers Squibb Company, priority 2006, dated 2010)
# Like-named read-outs stand apart in the source and are kept apart here.
# Legend:
# [1] = molecular target: T1, HCV NS3/4A protease complex, BMS strain (UniProt P27958, species not given/STRAIN_BMS); assay: FRET peptide assay to monitor HCV NS3/4A proteolytic activity (BMS strain); type: biochemical, Hepatitis C virus (genotype 1a); conditions: read-out: IC50 against the NS3/4A BMS strain in the enzyme assay; BMS strain
# T1 construct: other: BMS strain; said of H77 and J4L6S; fused on or other part: A three-lysine solubilising tail at the C-terminus of NS4A; A His tag is implied by the pET21b vector and Ni-NTA purification; Both are printed for the H77 and J4L6S constructs and apply to BMS by inference
# Outline: (§1)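 Purified recombinant NS3/4A complex from genotype 1a BMS strain, 2-3 nM final, with RET S1 EDANS/DABCYL depsipeptide substrate at 2 μM final in HEPES pH 7.5, NaCl, Triton, glycerol, βME. Cleavage followed in real time by fluorescence. For high-potency compounds: 50 μg/ml BSA added, protease lowered to 300 pM.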
# T1 sequence (P27958 1027-1657, stated change not applied, one chain of several): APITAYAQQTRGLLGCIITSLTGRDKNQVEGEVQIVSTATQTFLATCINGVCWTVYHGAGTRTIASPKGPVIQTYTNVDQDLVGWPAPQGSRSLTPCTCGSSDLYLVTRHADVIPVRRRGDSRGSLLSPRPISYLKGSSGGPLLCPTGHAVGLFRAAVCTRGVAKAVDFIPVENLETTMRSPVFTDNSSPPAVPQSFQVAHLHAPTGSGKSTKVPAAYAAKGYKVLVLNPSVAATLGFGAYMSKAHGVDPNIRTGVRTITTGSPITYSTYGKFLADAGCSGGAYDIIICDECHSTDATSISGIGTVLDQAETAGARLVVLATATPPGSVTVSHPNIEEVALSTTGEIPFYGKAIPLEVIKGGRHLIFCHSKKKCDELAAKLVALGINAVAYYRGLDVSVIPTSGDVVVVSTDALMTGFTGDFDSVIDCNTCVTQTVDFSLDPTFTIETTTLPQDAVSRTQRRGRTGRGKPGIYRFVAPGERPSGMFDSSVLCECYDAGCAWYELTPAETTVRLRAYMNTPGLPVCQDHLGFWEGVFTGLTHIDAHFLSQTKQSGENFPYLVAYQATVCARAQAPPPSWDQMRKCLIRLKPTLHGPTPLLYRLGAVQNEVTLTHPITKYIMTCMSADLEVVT
# [2] = molecular target: T2, HCV NS3/4A protease complex, BMS strain (UniProt P27958, species not given/STRAIN_BMS); assay: as above; type: biochemical, Hepatitis C virus (genotype 1a); conditions: read-out: HCV Protease (IC50); NS3/4A BMS strain; activity range class
# T2 construct: other: NS3/4A BMS strain; activity range class; numeric values, unit not given; said of H77 and J4L6S; fused on or other part: A three-lysine solubilising tail at the C-terminus of NS4A; A His tag is implied by the pET21b vector and Ni-NTA purification; Both are printed for the H77 and J4L6S constructs and apply to BMS by inference
# Outline: as §1
# T2 sequence (P27958 1027-1657, stated change not applied, one chain of several): as above
# human liver cathepsin B = molecular target: T3, human liver cathepsin B (Homo sapiens, UniProt P07858); assay: Specificity assay, cathepsin B; type: biochemical; conditions: read-out: Cathepsin B activity in the specificity assays (IC50)
# T3 construct: purchased Sigma, EMDbiosciences; host or cells: human liver
# Experimental: The specificities of compounds of the present disclosure were determined against a variety of serine proteases: human neutrophil elastase (HNE), porcine pancreatic elastase (PPE) and human pancreatic chymotrypsin and one cysteine protease: human liver cathepsin B. In all cases a 96-well plate format protocol using either colorimetric p-nitroaniline (pNA) substrate or fluorometric Amino-Methyl-Coumarin (AMC) specific for each enzyme was used as described previously (PCT Patent Application No. WO 00/09543) with some modifications to the serine protease assays. All enzymes were purchased from Sigma, EMDbiosciences while the substrates were from Bachem, Sigma and EMDbiosciences.
# The pNA assay for Chymotrypsin included a 1 h enzyme-inhibitor pre-incubation at room temperature followed by addition of substrate and hydrolysis to ˜15% conversion as measured on a Spectramax Pro microplate reader. Compound concentrations varied from 100 to 0.4 μM depending on their potency. Cathepsin B, HNE, and PPE assays each was initiated by addition of substrate to enzyme-inhibitor pre-incubated for 10 min at room temperature and hydrolysis to 15% conversion as measured on cytofluor. […]
# The percentage of inhibition was calculated using the formula: [1−((UVinh−UVblank)/(UVctl−UVblank))]×100 […]
smiles,measurement,setting,value
"C=C[C@@H]1C[C@]1(NC(=O)[C@@H]1C[C@@H](Oc2nc(N(C)C)cc3cc(OC)ccc23)CN1C(=O)C(Nc1cc(C)cc(C)n1)C(C)(C)C)C(=O)NS(=O)(=O)C1CC1 (single isomer, unassigned) [Compound 18]",IC50,[1],3.4 nM
same,IC50,[2],0.6 to 20 nM
same,IC50,human liver cathepsin B,> 50000 nM
